We go through 39 sequences from the OligoGym collection.

One series deals with SOD1. As to conditions: ASO.
Another series addresses MALAT1. The note with it: ASO, A431, 0.005 µM.

Where “and” joins values, the source holds several entries; their conditions need not be identical. Equal entries are not always repeated. After the bases stand the sugars from the 5' end (letter, count) and the backbone: PS all phosphorothioate, else s phosphorothioate and o phosphodiester by linkage. Methylation of C is not given here. e = 2'-O-(2-methoxyethyl) (MOE); k = constrained ethyl (cEt); d = 2'-deoxy (DNA)

On to “ACTGGGCCGTCGCCCTTCAG (sugars e5 d10 e5, PS)”, for which the target mRNA inhibition with SOD1 (HepG2, 4 µM) amounted to 26%.
Consider “ACTTTATAGGCCAGACCTCC (sugars e5 d10 e5, PS)”, for which, in the series with SOD1 (HepG2, 4 µM), the target mRNA inhibition was found to be 64%.
Consider “ACTTTCCTTCTGCTCGA (sugars e3 k2 d7 k2 e3, PS)”, for which the target mRNA inhibition in the series with SOD1 (HepG2, 3 µM) amounted to 0%.
For “ACTTTCTTCATTTCCAC (sugars e3 k2 d7 k2 e3, PS)”, the target mRNA inhibition in the series with SOD1 (HepG2, 3 µM) was 15%.
The same measure, in the same setting: with “AGAAATTCTGACAAGTT (sugars e3 k2 d7 k2 e3, PS)” the figure was 8%; with “AGACTACATCCAAGGGA (sugars e3 k2 d7 k2 e3, PS)”, 39%; with “AGAGGATTAAAGTGAGG (sugars e3 k2 d7 k2 e3, PS)”, 16%.
Consider “AGCAGTCACATTGCCCA (sugars e3 k2 d7 k2 e3, PS)”, for which the target mRNA inhibition with SOD1 (HepG2, 3 µM) amounted to 18%.
For “AGCTAGCAGGATAACAG (sugars e2 k2 d9 k2 e2, PS)”, in the series with SOD1 (HepG2, 4 µM), the target mRNA inhibition came out at 54%.
As to “AGGACCTGCACTGGTAC (sugars e3 k2 d7 k2 e3, PS)”, the target mRNA inhibition with SOD1 (HepG2, 3 µM) came out at 4%.
“AGGATAACAGATGAGTT (sugars e2 k2 d9 k2 e2, PS)”: the target mRNA inhibition with SOD1 (HepG2, 0.1875 µM) was determined as 32%; with SOD1 (HepG2, 0.75 µM), 62%; with SOD1 (HepG2, 3 µM), 89%; in the series with SOD1 (HepG2, 4 µM), 86%; with SOD1 (HepG2, 12 µM), 98%.
Consider “AGGTCATTGAAACAGAC (sugars e2 k2 d8 k2 e3, PS)”, for which, in the series with SOD1 (HepG2, 5 µM), the target mRNA inhibition was found to be 40%.
Turning to “AGTCATCTGCTTTTTCA (sugars e3 k2 d7 k2 e3, PS)”, the target mRNA inhibition in the series with SOD1 (HepG2, 3 µM) is 76%.
For “AGTCTGGCAAAATACAG (sugars e3 k2 d7 k2 e3, PS)”, the target mRNA inhibition with SOD1 (HepG2, 3 µM) came to 1%.
“AGTGTTTAATGTTTAT (sugars kekeddddddddekek, linkages s1 o3 s8 o1 s2)”: the target mRNA inhibition with SOD1 (A431, 0.12 µM) is 2%; with SOD1 (A431, 0.6 µM), 31%; with SOD1 (A431, 3 µM), 47%; with SOD1 (A431, 15 µM), 61%.
Consider “AGTGTTTAATGTTTATC (sugars e2 k2 d9 k2 e2, PS)”, for which the target mRNA inhibition is 35% with SOD1 (HepG2, 0.1875 µM); 66% with SOD1 (HepG2, 0.75 µM); 83% with SOD1 (HepG2, 3 µM); 75% with SOD1 (HepG2, 4 µM); 80% with SOD1 (HepG2, 5 µM); 84% and 87% in the series with SOD1 (HepG2, 12 µM).
“AGTGTTTAATGTTTATCA (sugars e5 d8 e5, linkages s1 o3 s9 o2 s2)”: the target mRNA inhibition with SOD1 (A431, 0.12 µM) came to 2%; with SOD1 (A431, 0.6 µM) it was 35%; with SOD1 (A431, 3 µM), 52%; with SOD1 (A431, 15 µM) it was 67%; with SOD1 (HepG2, 0.222 µM), 33%; with SOD1 (HepG2, 0.667 µM), 58%. Besides, the target mRNA inhibition with SOD1 (HepG2, 2 µM) worked out at 74%; with SOD1 (HepG2, 6 µM), 86%.
For the sequence “AGTTTAATACCCATCTG (sugars e2 k2 d8 k2 e3, PS)”, the target mRNA inhibition with SOD1 (HepG2, 5 µM) was determined as 29%.
Consider “AGTTTCTCACTACAGGT (sugars e2 k2 d9 k2 e2, PS)”, for which the target mRNA inhibition with SOD1 (HepG2, 5 µM) came to 50%.
“ATAAAACTATACAAATC (sugars e3 k2 d7 k2 e3, PS)”: the target mRNA inhibition with SOD1 (HepG2, 3 µM) amounted to 14%.
Turning to “ATAAGTGCCATACAGGG (sugars e2 k2 d9 k2 e2, PS)”, in the series with SOD1 (HepG2, 5 µM), the target mRNA inhibition was found to be 46%.
As to “ATACAAATCTTCCAAGT (sugars e3 k2 d7 k2 e3, PS)”, in the series with SOD1 (HepG2, 3 µM), the target mRNA inhibition is 15%.
On the same count and under the same terms, as for “ATACAGGTCATTGAAAC (sugars e3 k2 d7 k2 e3, PS)”, the figure is 14%; as for “ATAGAGGATTAAAGTGA (sugars e3 k2 d7 k2 e3, PS)”, 9%.
As for “ATAGCCTCATAATAAGT (sugars e2 k2 d8 k2 e3, PS)”, the target mRNA inhibition in the series with SOD1 (HepG2, 5 µM) was found to be 20%.
On the same count and under the same terms, as for “ATAGCCTCATAATAAGT (sugars e2 k2 d9 k2 e2, PS)”, the figure is 27%; as for “ATCAGTTTCTCACTACA (sugars e2 k2 d9 k2 e2, PS)”, 44%.
On to “ATCCAAGGGAATGTTTA (sugars e3 k2 d7 k2 e3, PS)”, for which the target mRNA inhibition with SOD1 (HepG2, 3 µM) is 42%.
Consider “ATCCTTTGGCCCACCGT (sugars e3 k2 d7 k2 e3, PS)”, for which the target mRNA inhibition with SOD1 (HepG2, 3 µM) amounted to 51%.
Turning to TTTAAGCCTTCGGTGC (sugars k3 d10 k3, PS), the target mRNA inhibition in the series with MALAT1 stood at 13%.
As to TTTAATCATACTCCAG (sugars k3 d10 k3, PS), the target mRNA inhibition with MALAT1 is 24%.
Same read-out and setting: as for TTTACCAACCACTCGC (sugars k3 d10 k3, PS), the figure is 18%; as for TTTATCACTCAGCTGG (sugars k3 d10 k3, PS), 53%; as for TTTCATCCTACCACTC (sugars k3 d10 k3, PS), 27%.
In the case of TTTGAAGCATACCTTA (sugars k3 d10 k3, PS), the target mRNA inhibition with MALAT1 was -1%.
Still for that read-out and setting: with TTTTAAAAAGGCTCGA (sugars k3 d10 k3, PS) the figure was 12%; with TTTTAAACGGGTCATC (sugars k3 d10 k3, PS), 17%.
Same read-out and setting: as for TTTTAATCACCTTCGG (sugars k3 d10 k3, PS), the figure is 44%; as for TTTTAGCAGTAACATC (sugars k3 d10 k3, PS), 34%.
